Patent US9127291B2, “Methods and products for biasing cellular development” (University of Central Florida Research Foundation, Inc., priority 2004, dated 2015)
“Also recorded” adds a separate entry of the source.

How the values were obtained:
LA-N-2 cells = experiment: Retinoic acid treatment of LA-N-2 human neuroblastoma cells; format: cell-based; settings: final concentration 10^−6M
Description: LA-N-2 cells were obtained from Dr. Jan Blusztajn (Boston University, MA). The cells were cultured in Leibovitz L-15 medium (Gibco, BRL, Burlington, ON) containing 10% fetal calf serum and antibiotic-antimyotic mixture (Gibco) in a humidified incubator at 37° C. without CO2. The medium was replaced every 3 days. For treatment with retinoic acid (RA), the cells were sub-plated at a density of 0.5-1×10^6 cells/plate using 0.25% trypsin/1 mM EDTA (Gibco, BRL) and allowed to attach overnight. A fresh stock of 4 mM all-trans retinoic acid RA (Sigma, St. Louis, Mo.) was prepared in 100% ethanol under amber lighting. […] The media was changed every 48 h during the differentiation of the cells, which was complete after 7-14 days.
Following fixation, HNSCs were briefly washed 3×5 min in Phosphate buffered saline (PBS), then blocked with 3% normal donkey serum in PBS containing 0.05% Tween 20 (PBS-T) and incubated with goat IgG polyclonal anti-human ChAT (1:500, Chemicon), mouseIgG2b monoclonal anti-human βIII-tubulin (1:1000, Sigma) or rabbit anti-human […] (GFAP) (1:1000, Sigma) overnight at 4° C. The corresponding secondary antibodies (donkey anti-goat, donkey anti-mouse, and donkey anti-rabbit, respectively) conjugated to rhodamine or FITC (Jackson IR Laboratories, Inc.) were added for a 2 hr incubation at RT in the dark. […]

HNSCs = experiment: Co-culture of HNSCs transfected with human Lhx8 gene with RA-treated LA-N-2 cells; format: cell-based; settings: co-culture with RA-treated LA-N-2 cells
Description: Using the same vector formation and transfection methods as in Example 2, the Human Lxh8 gene (SEQ ID NO: 6) is transfected into HNSCs. Transfected NHSC cells are cultured in a first treatment that includes LA-N-2 cells that are treated with RA and that express both Lhx8 and ChAT. A co-culture control comprises NHSCs that are not transfected but that are in the same culture vessel as LA-N-2 that are treated with RA and that express both Lhx8 and ChAT. For the first treatment and the co-culture control, HNSC cells are placed in cell culture inserts with an appropriate pore size and suspended in basal media (in the absence of FGF-2 and EGF and without the addition of other extrinsic differentiation factors) over differentiated LA-N-2 cells plated in 6-well plates.
Immunochemistry follows the same procedure as in Example 2 above.

multipotent stem cells = experiment: Nkx2-5-transfected multipotent stem cells cocultured with rat cardiomyocytes; format: cell-based, human; settings: coculture with rat cardiomyocytes
Source text: Red=human specific Troponin I, Green=Human cells. Following transfection, multipotent stem cells were cocultured with rat cardiomyocytes that provide environmental signals to allow the transfected cells to develop properly.

[1] = tested on: Human Neural Stem Cells (HNSCs); experiment: Differentiation of Hath1-transfected HNSCs (calretinin immunocytochemistry, Western blot, electron microscopy); format: cell-based
Description: An established a non-serum HNSC culture system was utilized to investigate the differentiation of human neural stem cells (HNSCs) within a defined condition. (Christopher L. Brannen and Kiminobu Sugaya, Regeneration and Transplantation, 11:5, 1123-1128 (2000)). The serum-free supplemented growth medium consisted of HAMS-F12 (Gibco, BRL, Burlington, ON), antibiotic/antimycotic mixture (1:100, Gibco), B27 (1:50, Gibco), human recombinant FGF-2 and EGF (20 ng/ml each, R and D Systems, Minneapolis, Minn.), and heparin (5 ug/ml, Sigma, St. Louis, Mo.). Cells were maintained in 20 ml of this medium at 37° C. in a 5% CO2 humidified incubation chamber.
The mammalian expression vector containing Hath1 gene was transfected into HNSCs by using the Neuroporter Kit (Gene Therapy Systems, Inc. San Diego, Calif.) and Hath 1 gene expression was confirmed by RT-PCR. These Hath1-transfected HNSCs were differentiated for 7 days by the depletion of mitotic factors (FGF-2, EGF) from the culture media. After the differentiation the cells were fixed for immunocytochemistry and Electron Microscopy.
The gene expression of Hath1 is assessed by RT-PCR with the following condition: 95° C. (60″), 56° C. (60″), 72° C. (60″) for 35 cycles, with an initial denaturation of 95° C. (5′) and final elongation of 72° C. (15′). The Hath1 gene is transfected into Human Neural Stem Cells (HNSCs) using the Neuroporter Kit. The Neuroporter kit utilizes a lipid-based transfection system for the use with cultured primary neurons, neuronal cell lines, and glial cells. DNA and Neuroporter are used in a ratio of 10 μg DNA/75 μl Neuroporter, utilizing 37.5 μl per well in a 6-well plate and with total volumes of 1.5 mL growth media per well. […]
Following PBST washing, the cells are incubated with secondary antibody biotinylated anti-rabbit made in goat in PBS containing 0.05% Triton-X100 (PBST), with a dilution factor of 1:200. […] The cells are washed with water, ethanol, and xylene, coverslipped with permount, and ready for viewing with microscopy. […]

CC1=C(/C=C/C(C)=C/C=C/C(C)=C/C(=O)O)C(C)(C)CCC1 [RA, all-trans retinoic acid]
Lhx8 and ChAT gene expression by RT-PCR compared with non-treated cells (LA-N-2 cells; RA): increased expression
marker expression in LA-N-2 cells (immunostaining) (LA-N-2 cells; RA-containing media, 7-14 days): expressed Lhx8, βIII-tubulin, and ChAT

Human Lxh8 gene: Human Lxh8 gene (SEQ ID NO: 6) transfected into HNSCs with the vector and methods of Example 2
differentiated cell type (βIII-tubulin, ChAT staining) (HNSCs): positive for βIII-tubulin and ChAT

Nkx2-5: developmental control gene Nkx2-5 (SEQ ID NO: 12) transfected into multipotent stem cells (DNA TGCTGGCATGTCCGCTGTCT; listed as DNA, chemistry not given here)
biasing of differentiation (human specific Troponin I staining) (multipotent stem cells): biases the differentiation toward the development of cardiac cells

Hath1: Hath1 gene amplified from BAC clone RP11-680J17, cloned into mammalian expression vector pcDNAHismax TOPO TA under CMV promoter
cell morphology by electron microscopy ([1]; transfected HNSCs after differentiation): typical IEHC morphology; also recorded: distinct hair-like projections
calretinin expression by Western blot ([1]; transfected HNSCs differentiated for 7 days): single band specific to calretinin molecular weight
calretinin (hair cell marker) expression by immunocytochemistry ([1]; transfected HNSCs differentiated for 7 days without FGF-2, EGF): existence of cells expressing calretinin
